The values that follow come from US20250034186A1, “ANTIVIRAL COMPOUNDS” (priority 2020, published 2025).

A short description of one data set: MT-4 cytotoxicity assay. The class given is cell-based. Particulars: human, MT-4 cells (uninfected), 4-5 days, read-out: CC50 MT4. Here is the method: Cytotoxicity of the compound of Formula I and compounds 1, 2, and 6 was determined in uninfected cells using the cell viability reagent in a similar fashion as described before for other cell types (Cihlar et al., Antimicrob Agents Chemother. 2008, 52(2):655-65.). HEp-2 (1.5×10^3 cells/well) and MT-4 (2×10^3 cells/well) cells were plated in 384-well plates and incubated with the appropriate medium containing 3-fold serially diluted compound ranging from 15 nM to 100,000 nM. Cells were cultured for 4-5 days at 37° C. Following the incubation, the cells were allowed to equilibrate to 25° C., and cell viability was determined by adding Cell-Titer Glo viability reagent. The mixture was incubated for 10 min, and the luminescence signal was quantified using an Envision plate reader. Untreated cell and cells treated at 2 μM puromycin (Sigma, St. Louis, MO) serve as 100% and 0% cell viability control, respectively.

Another data set can be described thus: NHBE cytotoxicity assay. The class given is cell-based. Particulars: human, normal bronchial epithelial (NHBE) cells. The procedure: Normal human bronchial epithelial (NHBE) cells were purchased from Lonza (Walkersville, MD, Cat #CC-2540) and cultured in Bronchial Epithelial Growth Media (BEGM) (Lonza, Walkersville, MD, Cat #CC-3170). The cells were passaged 1-2 times per week to maintain <80% confluency per manufacturer's protocol. The NHBE cells were discarded after 5 passages in culture.
Following attachment, 3-fold serially diluted compound was added using a Hewlett-Packard D300 Digital Dispenser (Hewlett Packard, Palo Alto, CA) in triplicate. The final concentration of DMSO was normalized to 1.0%. Following compound addition, NHBE or SAEC cells were incubated at 37° C. for 5 days. The NHBE or SAEC cells were then allowed to equilibrate to 25° C. and cell viability was determined by removing 100 μL of culture medium and adding 100 μL of Cell-Titer Glo viability reagent (Promega, Madison, WI). The mixtures were incubated for 10 minutes at 25° C., and the luminescence signal was quantified on an Envision luminescence plate reader (PerkinElmer, Waltham, MA). Percent viability values were determined by normalization to 1.0% DMSO-only control wells with background luminescent signal subtracted out.

A short description of another data set: MRC5 cytotoxicity assay. The class given is cell-based. The settings on record: human, MRC5 cells. The procedure: Compounds were tested in a high-throughput 384-well assay format for cytotoxicity in MRC5 cells (human fetal lung fibroblast cell line). Cells were diluted in media (MEM (10-010-CM), 10% FBS, 1% PSG) to 16.6K cells/mL and plated at 90 uL/well into 384 well poly-D-lysine coated assay plates and placed in an incubator at 37° C. and 5% CO2. Compounds were serially diluted (1:3) in 100% DMSO in 384-well plates in quadruplicate. DMSO and 2 mM Puromycin were included as negative and positive controls respectively. 24 hours after cell plating, a 384 channel pipettor was used to transfer 0.4 uL from the compound plate to the assay plate. Assay plates were returned to the incubator. After 5 days, assay plates were washed with 80 uL/well of PBS before addition of 20 μL of Cell Titer Glo. Assay plates were read on the Envision plate reader. […] CC50 values were calculated in Accord (on-line tool) using a one-site dose-response model to generate sigmoidal curve fits.

The next data set has as its system HRVc15 replicon. The experiment in a line: HRVc15 HeLa replicon EC50. The class given is cell-based, human rhinovirus. Particulars: for EC50: Human rhinovirus sp., HRV15, HRVc15 replicon in H1-HeLa cells, 48 hrs, luciferase, read-out: HRV15 Rep EC50. The procedure:
First, HRV replicon RNA is prepared. 5 μg of DNA Template (HRVc15 or HRVc25) is linearized with 2 μL of MluI enzyme in NEB buffer-3 in a final volume of 25 μL for 3 hours at 37° C. Following incubation, linearized DNA is purified on a PCR purification column and the following in vitro transcription is performed using the following conditions: 10 μL of RiboMAX Express T7 2× buffer, 1-8 μL of linear DNA template (1 μg), 0-7 μL nuclease free water, 2 μL enzyme mix T7 express. The final volume of 20 μL is mixed and incubated at 37° C. for 30 min. Following incubation, 1 μL of RQ1 RNase free DNase is added and the mixture is incubated at 37° C. for 15 min. The resulting RNA is then purified with the MegaClear Kit (Gibco Life Technologies Cat #11835-030) and is eluted two times with 50 μL of elution buffer at 95° C. H1-HeLa cells cultured in complete RPMI 1640 media containing 10% heat-inactivated FBS and 1% Penicillin/Streptomycin are seeded into T-225 flasks at a concentration of 2E6 cells/flask a day prior to transfection and are incubated at 37° C./5% CO2 overnight. On the day of transfection, cells are trypsinized following standard cell culture protocols and are washed two times with PBS. Following washes, cells are resuspended at a concentration of 1E7 cells/mL in PBS and the suspension is stored on wet ice. Electroporation is used to introduce replicon RNA into the H1-HeLa cells. A final volume of 10 μL containing 10 μg of replicon c15 or 1 μg of c25 replicon RNA, respectively, are pipetted into a 4 mm electroporation cuvette. The H1-HeLa cell stock is mixed by gently swirling and 0.5 mL of the cell stock previously prepared is transferred into the cuvette containing the replicon RNA. The combined solution is flicked to mix. Following mixing, cells are immediately electroporated using the following settings: 900V, 25 uF, infinite resistance, 1 pulse. Cuvettes are rested on ice for 10 min. Following the 10 min incubation, add 19 mL of ambient temperature, phenol red-free and antibiotic-free RPMI 1640 containing 10% heat-inactivated FBS per electroporation. 150 μL (4E4 cells) of the electroporated cell suspension are seeded per well into a 96 well clear-bottom, white cell culture plate, and are incubated at 25° C. for 30 min. […] Replicon activity is then measured by a Renilla-Glo Luciferase Assay system. Prior to signal quantification, plates are removed from incubators and are allowed to equilibrate to 25° C. after 50 uL is removed from each well. […] Plates are then incubated for 20 min at 25° C. under gentle agitation and luciferase signal are determined with a 0.1 second detection setting using an EnVision luciferase quantification reader.
A general note: In antiviral work, replicon cells carry a viral genome segment that copies itself.

Molecules are shown by their SMILES.

As a reminder, the CC50 is the concentration giving 50% cytotoxicity. For `CCOC(=O)[C@H](C)NP(=O)(OC[C@@]1(C#N)O[C@@H](c2ccc3c(N)ncnn23)[C@H](O)[C@@H]1O)Oc1ccccc1` (stereo partly shown) [Compound 1, reference compound], the CC50 in “MT-4 cytotoxicity assay” is 52.4 µM. In addition, the CC50 at 5 days in “NHBE cytotoxicity assay” is > 50 µM; in the data set “MRC5 cytotoxicity assay” it was > 44.4 µM.
As a reminder, the EC50 is the concentration needed to bring the measured effect to its halfway point. As to `CCC(CC)COC(=O)[C@H](C)NP(=O)(OC[C@@]1(C#N)O[C@@H](c2ccc3c(N)ncnn23)[C@H](O)[C@@H]1O)Oc1ccccc1` (stereo partly shown) [Compound 2, reference compound], in “MT-4 cytotoxicity assay”, the CC50 was > 43.7 µM. Besides, the EC50 with HRVc15 replicon was found to be 21 nM. The CC50 at 5 days in the data set “NHBE cytotoxicity assay” was 29.1 µM; in the data set “MRC5 cytotoxicity assay”, > 44.4 µM.
With `CCC(CC)COC(=O)[C@H](C)N[P@](=O)(OC[C@@]1(C#N)O[C@@H](c2ccc3c(N)ncnn23)[C@H](O)[C@@H]1O)Oc1ccccc1` [Compound 6, 2-ethylbutyl ((S)-(((2R,3S,4R,5S)-5-(4-aminopyrrolo[2,1-f][1,2,4]triazin-7-yl)-2-cyano-3,4-dihydroxytetrahydrofuran-2-yl)methoxy)(phenoxy)phosphoryl)alaninate], in the data set “MT-4 cytotoxicity assay”, the CC50 is 38.8 µM. Further, the half-maximal effective concentration (EC50) with HRVc15 replicon came out at 17 nM. Further, the CC50 at 5 days is 24.4 µM in the data set “NHBE cytotoxicity assay” and > 88.4 µM in the data set “MRC5 cytotoxicity assay”.
Take `C[C@H](N[P@](=O)(OC[C@@]1(C#N)O[C@@H](c2ccc3c(N)ncnn23)[C@H](O)[C@@H]1O)Oc1ccccc1)C(=O)OC1CCCCC1` [Formula I, cyclohexyl ((S)-(((2R,3S,4R,5S)-5-(4-aminopyrrolo[2,1-f][1,2,4]triazin-7-yl)-2-cyano-3,4-dihydroxytetrahydrofuran-2-yl)methoxy)(phenoxy)phosphoryl)-L-alaninate]: in the data set “MT-4 cytotoxicity assay”, the CC50 amounted to 56.2 µM. For the same compound, in the data set with HRVc15 replicon (EC50 ratio vs compound 2), the “times more potent compared to compound 2, HRV15 Rep” value is on record as “about 2.3 times”. For the same compound, the EC50 in the data set on HRVc15 replicon came out at 9 nM. The CC50 at 5 days is > 40.1 µM in “NHBE cytotoxicity assay” and > 44.4 µM in “MRC5 cytotoxicity assay”.
